Test results: PMC8306139, “A Novel Dialkylamino-Functionalized Chalcone, DML6, Inhibits Cervical Cancer Cell Proliferation, In Vitro, via Induction of Oxidative Stress, Intrinsic Apoptosis and Mitotic Catastrophe” (Molecules, 2021)

Key:
Format in all cases: cell-based
OV2008 cells [1] = experiment: Reactive oxygen species detection (H2DCFDA); settings: 5 or 20 μM, 24 h, vs vehicle
Procedure: The total intracellular level of reactive oxygen species (ROS) was determined by staining the cells with 2,7-dichlorofluorescein diacetate (H2DCFDA). In this assay, cellular esterases cleave the nonfluorescent H2DCFDA molecule to yield H2DCF, by removing the lipophilic moiety (a diacetate group). Subsequently, H2DCF is oxidized by ROS to 2′-7′dichlorofluorescein (DCF), which is a highly fluorescent dye. ROS levels were quantified based on the fluorescence level of DCF detected using EVOS microscope.
The compound, […] (H2DCFDA), was used to detect ROS as previously described. OV2008 cells were seeded at a density of 250,000 cells/ml. After 24 h of incubation with the vehicle, 5 or 20 µM of DML6, the cells were incubated with H2DCFDA for 30 min at 37 °C. The cells were washed 3 times with 1X PBS for 5 min. The levels of reactive oxygen species were then determined based on the fluorescence level of the oxidized DCFDA dye (excitation at 485 nm and emission at 535), using a EVOS digital fluorescent microscope at 20× magnification.

[2] = system: caspase-3/7 in OV2008 cells; experiment: Time-dependent apoptosis induction (Caspase-3/7 Green reagent)
Procedure: Cell Event™ Caspase-3/7 Green Detection Reagent from (Catalog # C10423, Life Technologies, Carlsbad, CA, USA), which is a novel fluorogenic substrate for activated caspase-3/7 that is compatible with living cells, was used to determine apoptosis activation in real-time in OV2008 cells incubated with DML6. Briefly, OV2008 cells were seeded in 96-well plates at a density of 1 × 10^3 cell/well. Twenty-four hours later, the cells were incubated with the vehicle (DMEM media with 10% FBS and 1% penicillin and streptomycin), 5 or 20 µM of DML6 for 72 h. Five micromolar of the apoptosis-detecting reagents were added to the cells immediately after DML6 and were incubated for up to 72 h at 37 °C. Fluorescence was determined every 24h using a live cell imaging system (IncuCyte Zoom, Essen Bioscience, Ann Arbor, MI, USA, using an absorption/emission maximum of ~502/530 nm.

caspase-9 = experiment: Western blot, cleaved caspase-9; settings: OV2008, 20 μM, 24 hours, vs vehicle
Procedure: (§1) The OV2008 cells were lysed to obtain total cellular protein fractions using Mammalian Protein Extraction Reagent (Catalog # 78501, M-PER™, Thermo Fisher Scientific, Waltham, MA, USA). The cells were seeded in […] at a density of 1 × 10^6 and incubated with 5 or 20 µM of DML6 or 1 µM of doxorubicin (Catalog # T1-2-, TargetMol, Boston, MA, USA) (a positive control) for 24 h. The following day, the cells were washed with ice-cold PBS, scraped using a cell scrapper and collected in Eppendorf tubes. The tubes were centrifuged at 1500 RPM at 4 °C for 5 min. The solution was discarded and replaced with 70 µL of the cell lysis buffer (M-PER reagent, 100 mM Sodium Orthovanadate (NaOV) at a final concentration of 2.5 mM) and a 100X protease inhibitor cocktail (Catalog # P8340, Sigma-Aldrich, St. Louis, MO, USA, final concentration of 1X, containing of aprotinin, bestatin, E-64, leupeptin and pepstatin). Thirty minutes later, the resulting solution was centrifuged at 10,000 RPM at 4 °C for 5 min and the supernatant was collected. The protein concentration of the cell extracts was determined using the bicinchoninic acid (BCA) (Catalog # 786-570, G-Biosciences, Saint Louis, MO, USA) quantification assay. […] Finally, the amount of protein in each blot was quantified using the Image J software (NIH, Bethesda, MD, USA). All data were calculated as a ratio to β-actin.

OV2008 cells [3] = experiment: Apoptosis and mitochondrial membrane potential (MitoTracker Red / Alexa Fluor 488 annexin V); settings: 24 h; for percentage of apoptotic cells in quadrant II (Q2): vehicle 8.41%; for percentage of live cells in quadrant I (Q1): vehicle 90.86%
Procedure: MitoTracker® Red and Alexa Fluor 488 annexin V kits for flow cytometry (Molecular Probes Inc., Eugene, OR, USA) were used to determine the mitochondrial membrane potential and apoptosis, respectively, in OV2008 cells, as previously described. OV2008 cells were seeded in 6-well plates and incubated with the vehicle, 5 or 20 μM of DML6 for 24 h. The following day, the cells were trypsinized using 0.25% trypsin, 2.21 mM EDTA, 1×, counted and 4 μL of 10 μM MitoTracker® Red working solution was added to 1 mL of the harvested cells. The cells were incubated at 37 °C with 5% CO2 for 30 min. The cells were washed with ice-cold phosphate-buffered saline (PBS), followed by cell resuspension in 100 μL of the annexin binding buffer. The cell suspensions were then incubated with 5 μL of Alexa Fluor 488 annexin V for 15 min, followed by adding 400 μL of the annexin-binding buffer. Finally, flow cytometry was used to detect the fluorescence of stained cells at the following excitation/emission maximum: Alexa Fluor® 488 annexin V: 499/521 nm; MitoTracker® Red: 579/599 nm, using a flow cytometer BD FACSCanto™ (BD Biosciences, Becton-Dickinson, San Jose, CA, USA) and analyzed using FCS Express 7 plus De Novo software (Glendale, CA, USA).

caspase-3 = experiment: Western blot, cleaved caspase-3; settings: OV2008, 5 or 20 µM, vs vehicle
Procedure: as §1

MDA-MB-231 = experiment: MTT assay, MDA-MB-231; settings: Homo sapiens, MDA-MB-231, 72 h, read-out: IC50 ± SD Breast MDA-MB-231
Procedure: The concentration of the tested compounds that produced a 50% inhibition of cell growth (IC50) was determined.
A panel of cancer cell lines, including cervical (OV2008 and HeLa), breast (MDA-MB-231), lung (A549) and colon (LOVO), prostate (DU145), human embryonic kidney cells (HEK293), human colon fibroblast cells (CRL1459), and Chinese hamster ovary cells (CHO), were grown as adherent monolayers in flasks containing Dulbecco’s modified Eagle medium (DMEM), supplemented with 10% fetal bovine serum (FBS) and 1% penicillin and streptomycin, in a humidified incubator with 5% CO2 at 37 °C.
The cells were seeded evenly (180 μL/well) in 96-well plates, at a density of 3000–5000 cells/well and incubated with serial dilutions of the compounds ranging from 0.1 to 100 μM. The MTT dye (4 mg/ml) was added after 72 h of incubation and incubated with the cells for an additional 4 h at 37 °C, allowing the viable cells to biotransform the yellow-colored MTT into dark-blue formazan crystals. Following incubation, the medium was aspirated, and the formazan crystals were dissolved by adding 100 μL of DMSO to each well. Cytation™ 5 and Cytation™ 7 multi-mode detector (Bio Tek Instruments, Winooski, VT, USA) was used to determine the absorbance readings at a wavelength of 570 nm. The IC50 values were determined based on 3 separate experiments, with each experiment carried out in triplicate.

Structure (SMILES): CN(C)c1ccc(/C=C/C(=O)c2ccc(Cl)cc2Cl)cc1 [DML6, (E)-1-[2,4-dichlorophenyl]-3-(4-(dimethylamino)phenyl)prop-2-en-1-one]
- levels of DCF fluorescence (ROS) (OV2008 cells [1]): significantly higher
- incubation time required to induce apoptosis ([2]; 5 µM): ≈ 48 h
- incubation time required to induce apoptosis ([2]; 20 µM): < 24 h
- apoptosis induction by activating caspase-3 and caspase-7 ([2]; 5 or 20 μM, time-dependent, vs vehicle): significantly induced apoptosis
- cleavage of initiator caspase-9 (caspase-9): induced the cleavage
- percentage of apoptotic cells in quadrant II (Q2) (OV2008 cells [3]; 5 µM): 41.38%
- percentage of live cells in quadrant I (Q1) (OV2008 cells [3]; 5 µM): 53.39%
- percentage of apoptotic cells in quadrant II (Q2) (OV2008 cells [3]; 20 µM): 73.67%
- percentage of live cells in quadrant I (Q1) (OV2008 cells [3]; 20 µM): 22.37%
- cleavage (activation) of caspase-3 (caspase-3): significantly increased the cleavage
- IC50 (MDA-MB-231): 91.9 ± 11.5 µM
